# Assay results as given in ChEMBL document CHEMBL1138717, “Synthesis of 8-thiabicyclo[3.2.1]oct-2-enes and their binding affinity for the dopamine and serotonin transporters” (Bioorg Med Chem Lett, 2004).
# Tests used:
# [1] = target: Sodium-dependent dopamine transporter (Homo sapiens, UniProt Q01959); test: Inhibition of [3H]WIN-35428 binding to human dopamine transporter (hDAT)
# [2] = target: Sodium-dependent serotonin transporter (Homo sapiens, UniProt P31645); test: Inhibition of [3H]citalopram binding to human serotonin transporter (hSERT)
# Sequence of Sodium-dependent serotonin transporter (P31645 whole entry): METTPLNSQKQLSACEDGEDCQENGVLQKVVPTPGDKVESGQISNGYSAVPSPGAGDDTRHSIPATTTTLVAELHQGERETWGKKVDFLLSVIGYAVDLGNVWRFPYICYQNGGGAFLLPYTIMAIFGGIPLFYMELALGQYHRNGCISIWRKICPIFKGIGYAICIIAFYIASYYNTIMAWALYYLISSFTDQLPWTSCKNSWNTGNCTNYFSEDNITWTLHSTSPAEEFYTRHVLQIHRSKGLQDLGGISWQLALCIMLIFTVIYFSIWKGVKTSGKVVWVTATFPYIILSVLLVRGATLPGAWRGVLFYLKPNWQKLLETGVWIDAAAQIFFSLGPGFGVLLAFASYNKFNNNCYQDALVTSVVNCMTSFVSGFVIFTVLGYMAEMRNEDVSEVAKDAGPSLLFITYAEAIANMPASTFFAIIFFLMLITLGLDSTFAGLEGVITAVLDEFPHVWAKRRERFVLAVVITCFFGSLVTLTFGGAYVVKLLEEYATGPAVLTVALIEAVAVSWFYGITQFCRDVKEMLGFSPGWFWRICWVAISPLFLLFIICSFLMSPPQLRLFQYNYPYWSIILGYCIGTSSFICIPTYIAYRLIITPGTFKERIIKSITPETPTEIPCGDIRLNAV
# [3] = Inhibition of [3H]WIN-35428 binding to dopamine transporter (DAT)
# Sequence of Sodium-dependent dopamine transporter (Q01959 whole entry): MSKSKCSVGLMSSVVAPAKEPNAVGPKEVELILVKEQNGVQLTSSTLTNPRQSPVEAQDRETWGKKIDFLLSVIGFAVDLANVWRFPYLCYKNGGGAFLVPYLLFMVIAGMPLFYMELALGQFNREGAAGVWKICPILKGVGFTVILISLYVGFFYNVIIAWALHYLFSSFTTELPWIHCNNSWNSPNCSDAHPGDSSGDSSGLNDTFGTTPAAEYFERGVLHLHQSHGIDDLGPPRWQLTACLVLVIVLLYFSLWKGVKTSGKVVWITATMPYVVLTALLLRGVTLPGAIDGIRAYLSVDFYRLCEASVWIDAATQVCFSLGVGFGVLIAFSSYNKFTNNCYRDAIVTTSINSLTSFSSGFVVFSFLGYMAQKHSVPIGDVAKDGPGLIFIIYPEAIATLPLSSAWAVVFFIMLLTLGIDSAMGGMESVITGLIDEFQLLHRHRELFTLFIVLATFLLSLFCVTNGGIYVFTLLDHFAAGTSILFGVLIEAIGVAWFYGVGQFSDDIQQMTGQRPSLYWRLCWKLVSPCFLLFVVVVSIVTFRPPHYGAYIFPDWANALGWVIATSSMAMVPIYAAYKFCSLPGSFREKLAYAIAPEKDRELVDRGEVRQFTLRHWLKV
Compound,IC50 [1],IC50 [2],IC50 [3]
COC(=O)C1=C(c2ccc(F)cc2)CC2CCC1O2 (stereo unspecified),2730 nM,> 50000 nM,
COC(=O)[C@H]1[C@@H](OC(=O)c2ccccc2)C[C@@H]2CC[C@H]1N2C [COCAINE],,,100 nM
COC(=O)C1=C(c2ccccc2)CC2CCC1S2 (stereo unspecified),910 nM,> 10000 nM,
COC(=O)C1=C(c2ccc(F)cc2)CC2CCC1S2 (stereo unspecified),220 nM,28000 nM,
COC(=O)C1=C(c2ccc(Cl)c(Cl)c2)CC2CCC1S2 (stereo unspecified),4.5 nM,3600 nM,
COC(=O)C1=C(c2ccc(Br)cc2)CC2CCC1O2 (stereo unspecified),62 nM,> 30000 nM,
COC(=O)C1=C(c2ccccc2)CC2CCC1O2 (stereo unspecified),> 10000 nM,> 10000 nM,
COC(=O)C1=C(c2ccc(Cl)c(Cl)c2)CC2CCC1O2 (stereo unspecified),12 nM,,
COC(=O)C1=C(c2ccc3ccccc3c2)CC2CCC1S2 (stereo unspecified),8 nM,1300 nM,
COC(=O)C1=C(c2ccc(Cl)cc2)CC2CCC1O2 (stereo unspecified),238 nM,> 60000 nM,
COC(=O)C1=C(c2ccc(Cl)cc2)CC2CCC1S2 (stereo unspecified),13 nM,> 10000 nM,
COC(=O)C1=C(c2ccc(I)cc2)CC2CCC1S2 (stereo unspecified),6.7 nM,8700 nM,
COC(=O)C1=C(c2ccc(I)cc2)CC2CCC1O2 (stereo unspecified),68 nM,4800 nM,
COC(=O)C1=C(c2ccc(Br)cc2)CC2CCC1S2 (stereo unspecified),9.1 nM,> 25000 nM,
